Source: patent US20100184773A1, “Germline Polymorphisms in the Angiogenic Pathway Predict Tumor Recurrence in Cancer Therapy” (priority 2007, published 2010)

Tested on: Stage III Colon Cancer
Test: Time to tumor recurrence in patients with stage III colon cancer, by type of adjuvant therapy (retrospective, log-rank test)
Format: in vivo, human
Experimental: Methods and Patients: One hundred and twenty five patients with stage III colon cancer who were treated with 5-FU-based adjuvant chemotherapy at the University of Southern California/Norris Comprehensive Cancer Center (USC/NCCC) or the Los Angeles County/University of Southern California Medical Center (LAC/USCMC), between 1992 and 2007, were eligible for the present study. This study was conducted at the USC/NCCC and approved by the Institutional Review Board (IRB) of the University of Southern California for Medical Sciences. Patient data were collected retrospectively through chart review. Informed consent was signed by all patients involved in the study.
Statistical analysis: The primary endpoint in this study was time to tumor recurrence (TTR) in stage III colon cancer patients, which was defined as the time from the date of diagnosis of stage III colon cancer to the date of first recurrence, […], or until last contact if the patient was free of any tumor recurrence at the time of last contact. If a patient had not recurred, then TTR was censored at the time of death or at the last follow-up. The associations of time to tumor recurrence with patient's clinico-pathologic characteristics (age, sex, race, tumor grade, T-stage, N-stage and type of chemotherapy) were assessed using univariate survival analyses (log-rank test).
The association between each polymorphism and time to recurrence was examined using Kaplan-Meier curves and log-rank test. The distributions of polymorphisms across demographic characteristics were examined using Fisher's exact test. In the univariate survival analysis, the Pike estimate of relative risk (RR) and its associated 95% confidence interval (95% CI) was based on the log-rank test.

O=c1[nH]cc(F)c(=O)[nH]1 [5-FU, 5-Fluorouracil]
Median time to recurrence (TTR) (patients with stage III colon cancer, by adjuvant therapy, '+' = estimates were not reached): 3.9 yrs
Probability ± SE of 3-year recurrence (stage III colon cancer, by adjuvant therapy, Greenwood SE): 0.47 ± 0.06
Relative risk (tumor recurrence, stage III colon cancer, reference = 5-FU group, Pike estimate based on log-rank test): 1
